Test results: paper doi:10.1101/2023.08.28.555062, “Discovery of 2-amide-3-methylester thiophenes that target SARS-CoV-2 Mac1 and repress coronavirus replication, validating Mac1 as an anti-viral target” (bioRxiv, 2023)
Entries after “also recorded” stand apart in the source; their conditions may differ. Read-outs that look alike come from different tables or passages of the source.

Key:
SARS-CoV-2 Mac1 [1] = target: T1, SARS-CoV-2 Mac1 (Severe acute respiratory syndrome coronavirus 2, UniProt P0DTD1); format: binding; details: 100 μM concentration; ± standard deviation of three replicates
SARS-CoV-2 Mac1 [2] = target: T1, SARS-CoV-2 Mac1; test: biochemical; format: binding; details: for drop in potency relative to 1: from IC50 values
PARP9 MD1 = PARP9 MD1 (Homo sapiens, UniProt Q8IXQ6); test: FRET profiling / potency against PARP9 MD1; format: binding
ALC1 = target: T2, ALC1 (Homo sapiens, UniProt Q86WJ1); test: FRET profiling / potency against ALC1 with YFP-GAP(PAR); format: binding; details: for inhibition at 1000 µM: read-out: maximum inhibition
T2 sequence (Q86WJ1 704-897 limits assumed): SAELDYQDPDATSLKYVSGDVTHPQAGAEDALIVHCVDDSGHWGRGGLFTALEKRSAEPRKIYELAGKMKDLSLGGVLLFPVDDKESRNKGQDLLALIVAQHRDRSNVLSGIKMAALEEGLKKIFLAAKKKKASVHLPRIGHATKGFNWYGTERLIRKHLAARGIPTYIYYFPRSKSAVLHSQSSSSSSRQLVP

viral macrodomains = test: FRET profiling against panel of other viral macrodomains; format: binding; details: up to 100 μM
human macrodomains = test: FRET profiling against panel of human macrodomains and ARH3; format: binding
[3] = target: macrodomains from MERS-CoV (Middle East respiratory syndrome-related coronavirus, UniProt K9N7C7); test: biochemical; format: binding
macrodomains from MERS-CoV, sequence (K9N7C7 1110-1276 limits assumed): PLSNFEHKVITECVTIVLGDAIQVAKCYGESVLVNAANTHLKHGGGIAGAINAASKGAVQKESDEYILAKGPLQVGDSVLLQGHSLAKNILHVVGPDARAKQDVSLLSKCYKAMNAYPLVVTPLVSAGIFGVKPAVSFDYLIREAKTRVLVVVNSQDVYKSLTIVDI

DBT cells = test: MTT cell viability assay, DBT cells; format: cell-based, mouse; details: 24 hours
Method: (§1) DBT, L929, and Calu-3 cells were treated with 27 for 24 hours. Cellular metabolic activity was assessed using a CyQUANT MTT Cell Proliferation Assay (Thermo Fisher Scientific) following manufacturer’s instructions.

L929 cells = test: MTT cell viability assay, L929 cells; format: cell-based, mouse; details: 24 hours
Method: as §1

Calu-3 cells = test: MTT cell viability assay, Calu-3 cells; format: cell-based, human; details: 24 hours
Method: as §1

SARS-CoV-2 = SARS-CoV-2 replication in Calu-3 cells with or without IFNγ, plaque assay; format: cell-based; details: 48 hpi
Method: Cells were infected with recombinant MHV-JHM or SARS-CoV-2 at a multiplicity of infection (MOI) of 0.1 PFU/cell with a 45–60 min adsorption phase, unless otherwise stated. Progeny cell-associated and cell-free virus was collected at indicated timepoints and viral titers were determined by plaque assay on Hela-MHVR (MHV) or Vero E6 (SARS-CoV-2) cells. All statistical analysis for viral infections was performed using GraphPad Prism software with an ordinary one-way ANOVA with a Dunnet’s test to correct for multiple comparisons to assess differences between treated and untreated samples. Graphs are expressed as means ± standard errors of the means. The n value represents the number of biological replicates for each group. Significant p values were denoted with asterisks. *, p≤0.05; **, p≤0.01, ***, p≤0.001, ****, p≤0.0001.

[4] = target: macrodomains from SARS-CoV (Severe acute respiratory syndrome coronavirus, UniProt P0C6X7)
[5] = IC50, FRET assay, SARS-CoV-2 Mac1, text and Fig. 1C
[6] = FRET assay, SARS-CoV-2 Mac1, text and Fig. 1C, read-out: IC50
[7] = FRET assay, SARS-CoV-2 Mac1, text and Fig. 1C
[8] = IC50 (pIC50 ± SEM): IC50, Table 2, synthesized analogs, n=3
[9] = Table 1, commercial analogs, n=3, given with negative sign, read-out: IC50 (pIC50 ± SEM): pIC50 ± SEM (converted)
[10] = Table 2, synthesized analogs, n=3, read-out: IC50 (pIC50 ± SEM): IC50 (converted)

## Nc1ncnc2c1ncn2[C@H]1O[C@@H](COP(=O)(O)OP(=O)(O)OC[C@H]2O[C@@H](O)[C@H](O)[C@@H]2O)[C@H](O)[C@@H]1O [ADP-ribose, reference compound]
SARS-CoV-2 Mac1 [1]
  ΔTm: 2.0 ± 0.14 °C

## COC(=O)c1c(NC(=O)C2CC=CCC2C(=O)O)sc2c1CCCCC2 (stereo not shown) [Compound 1, 6-{[3-(methoxycarbonyl)-5,6,7,8-tetrahydro-4H-cyclohepta[b]thiophen-2-yl]carbamoyl}cyclohex-3-ene-1-carboxylic acid]
SARS-CoV-2 Mac1 [2]; [5]
  IC50: 14 µM
PARP9 MD1
  IC50: 64 µM
PARP9 MD1; 100 μM
  inhibition at 100 µM: ≥ 70%
ALC1
  inhibition at 100 µM: ≥ 50%
  inhibition at 1000 µM: 58%
ALC1; partial inhibition only, read-out: IC50
  IC50: 6.8 µM
Viral macrodomains
  inhibition of other tested viral macrodomains: did not show effective inhibition
Human macrodomains; 10 μM and 100 μM
  inhibition of human macrodomains: selective towards Mac1 over all human macrodomains

## COC(=O)c1c(NC(=O)CCC(=O)O)sc2c1CCCCC2 [Compound 2]
SARS-CoV-2 Mac1 [2]; [6]
  IC50: 48 µM
SARS-CoV-2 Mac1 [2]
  drop in potency relative to 1: 3.5 fold
SARS-CoV-2 Mac1 [1]
  ΔTm: 0.3 ± 0.12 °C

## COC(=O)c1c(NC(=O)c2ccccc2C(=O)O)sc2c1CCCC2 [Compound 3, 2-{[3-(methoxycarbonyl)-4,5,6,7-tetrahydro-1-benzothiophen-2-yl]carbamoyl}benzoic acid]
SARS-CoV-2 Mac1 [2]; [6]
  IC50: 110 µM
SARS-CoV-2 Mac1 [2]
  drop in potency relative to 1: 7 fold
SARS-CoV-2 Mac1 [1]
  ΔTm: 0.7 ± 0.24 °C

## COC(=O)c1c(NC(=O)C2C3CCC(CC3)C2C(=O)O)sc2c1CCCC2 (stereo not shown) [Compound 12]
SARS-CoV-2 Mac1 [2]; [7]
  IC50: completely abolished the inhibitory effect
SARS-CoV-2 Mac1 [2]; Table 1, commercial analogs, n=3, read-out: IC50 (pIC50 ± SEM): IC50 (converted)
  IC50: > 100 µM

## COC(=O)c1c(NC(=O)C2CCCCC2C(=O)O)sc2c1CCCCC2 (stereo not shown) [Compound 15r, 2-{[3-(methoxycarbonyl)-4H,5H,6H,7H,8H-cyclohepta[b]thiophen-2-yl]carbamoyl}cyclohexane-1-carboxylic acid]
SARS-CoV-2 Mac1 [2]; [8]
  IC50: 6.3 µM
SARS-CoV-2 Mac1 [2]; [5]
  IC50: 6.5 µM

## COC(=O)c1c(NC(=O)C2CCCCC2C(=O)O)sc2c1CCC2 (stereo not shown) [Compound 16]
SARS-CoV-2 Mac1 [2]; [9]
  IC50: 21.9 µM

## COC(=O)c1c(NC(=O)C2CCCCC2C(=O)O)sc2c1CCCC2 (stereo not shown) [Compound 17]
SARS-CoV-2 Mac1 [2]; [9]
  IC50: 18.6 µM

## N#Cc1c(NC(=O)C2CC=CCC2C(=O)O)sc2c1CCCCC2 (stereo not shown) [Compound 21, 6-[(3-cyano-5,6,7,8-tetrahydro-4H-cyclohepta[b]thiophen-2-yl)carbamoyl]cyclohex-3-ene-1-carboxylic acid]
SARS-CoV-2 Mac1 [2]; [7]
  IC50: inactive
SARS-CoV-2 Mac1 [2]; [10]
  IC50: > 100 µM

## CC(=O)c1c(NC(=O)C2CC=CCC2C(=O)O)sc2c1CCCCC2 (stereo not shown) [Compound 22, 6-[(3-acetyl-5,6,7,8-tetrahydro-4H-cyclohepta[b]thiophen-2-yl)carbamoyl]cyclohex-3-ene-1-carboxylic acid]
SARS-CoV-2 Mac1 [2]; [7]
  IC50: inactive
SARS-CoV-2 Mac1 [2]; [10]
  IC50: > 100 µM

## COC(=O)c1c(NC(=O)C2CC=CCC2C(=O)OC)sc2c1CCCCC2 (stereo not shown) [Compound 23, Methyl 2-[6-(methoxycarbonyl)cyclohex-3-ene-1-amido]-4H,5H,6H,7H,8H-cyclohepta[b]thiophene-3-carboxylate]
SARS-CoV-2 Mac1 [2]; Table 2, synthesized analogs, n=3, given with negative sign, read-out: IC50 (pIC50 ± SEM): pIC50 ± SEM (converted)
  IC50: 10.7 µM

## O=C(O)c1c(NC(=O)C2CCCCC2C(=O)O)sc2c1CCCCC2 (stereo not shown) [Compound 24, 2-[(2-carboxycyclohexane-1-carbonyl)amino]-5,6,7,8-tetrahydro-4H-cyclohepta[b]thiophene-3-carboxylic acid]
SARS-CoV-2 Mac1 [2]; [7]
  IC50: without inhibitory activity
SARS-CoV-2 Mac1 [2]; [10]
  IC50: > 100 µM

## COC(=O)c1c(NC(=O)[C@H]2CCCC[C@@H]2C(=O)O)sc2c1CCCCC2 [Compound 25, (1S,2S)-2-{[3-(methoxycarbonyl)-4H,5H,6H,7H,8H-cyclohepta[b]thiophen-2-yl]carbamoyl}cyclohexane-1-carboxylic acid]
SARS-CoV-2 Mac1 [2]; [8]
  IC50: > 100 µM

## COC(=O)c1c(NC(=O)[C@@H]2CCCC[C@H]2C(=O)O)sc2c1CCCCC2 [Compound 26, (1R,2R)-2-{[3-(methoxycarbonyl)-4H,5H,6H,7H,8H-cyclohepta[b]thiophen-2-yl]carbamoyl}cyclohexane-1-carboxylic acid]
SARS-CoV-2 Mac1 [2]; [8]
  IC50: 2.7 µM
SARS-CoV-2 Mac1 [2]; IC50 (pIC50 ± SEM): pIC50 ± SEM, Table 2, synthesized analogs, n=3, given with negative sign
  IC50: 2.75 µM

## COC(=O)c1c(NC(=O)[C@@H]2CCCC[C@H]2C(=O)O)sc2c1CCCCCC2 [Compound 27, (1R,2R)-2-{[3-(methoxycarbonyl)-4H,5H,6H,7H,8H,9H-cycloocta[b]thiophen-2-yl]carbamoyl}cyclohexane-1-carboxylic acid]
ALC1
  IC50: 3 µM
  inhibition at 10 µM: ≥ 50%
  inhibition at 100 µM: ≥ 50%
  inhibition at 1000 µM: 63%
[3]
  IC50: > 100 µM
  inhibition %: 43%
Human macrodomains
  inhibition of human macrodomains: did not show effective inhibition
DBT cells
  cytotoxicity / viability (MTT): does not affect the viability; also recorded: did not have any cellular cytotoxicity
L929 cells
  cytotoxicity / viability (MTT): does not affect the viability; also recorded: did not have any cellular cytotoxicity
Calu-3 cells
  cytotoxicity / viability (MTT): does not affect the viability; also recorded: did not lead to any cytotoxicity
SARS-CoV-2; absence of IFNγ
  antiviral effect on SARS-CoV-2: minimal, if any, antiviral effects
SARS-CoV-2; presence of IFNγ (100 U/ml), 25 μM
  reduction in virus replication: 10–15 fold
[4]
  inhibition %: 64%

## COC(=O)c1c(NC(=O)[C@@H]2CCCC[C@H]2C(=O)OC)sc2c1CCCCCC2 [Compound 28, Methyl 2-[(1R,2R)-2-(methoxycarbonyl)cyclohexaneamido]-4H,5H,6H,7H,8H,9H-cycloocta[b]thiophene-3-carboxylate]
SARS-CoV-2 Mac1 [2]; [7]
  IC50: completely inactive
SARS-CoV-2 Mac1 [2]; [10]
  IC50: > 100 µM
